According to ChEMBL document CHEMBL3244265, “Preparation and biological actions of some symmetrically N,N-disubstituted dopamines” (J Med Chem, 1978):
Calls of active or inactive are those of the source. The calls are words filed in the database; no cut-off is given here.

Key:
Felis catus [1] = experiment: Inhibition of 2 Hz electric current-induced cardioaccelerator nerve stimulation in iv dosed cat by cardiotachometer analysis; format: functional
Felis catus [2] = experiment: Inhibition of 10 Hz electric current-induced cardioaccelerator nerve stimulation in iv dosed cat by cardiotachometer analysis; format: functional, organism-based
Felis catus [3] = experiment: Inhibition of 2 Hz electric current-induced cardioaccelerator nerve stimulation in iv dosed cat by cardiotachometer analysis in presence of 0.2 mg/kg, iv haloperidol; format: functional, organism-based; design: dose 0.2 mg/kg; conditions: at 0.2 mg/kg
Felis catus [4] = experiment: Inhibition of 2 Hz electric current-induced cardioaccelerator nerve stimulation in iv dosed cat by cardiotachometer analysis in presence of 2 mg/kg, iv phentolamine; format: functional, organism-based; design: dose 2 mg/kg; conditions: at 2 mg/kg
Felis catus [5] = experiment: Hypotensive activity in iv dosed cat; format: functional, organism-based
Felis catus [6] = experiment: Hypotensive activity in iv dosed cat in presence of haloperidol; format: functional, organism-based
Canis familiaris [7] = experiment: Induction of emesis in sc dosed dog; format: functional; conditions: Canis lupus familiaris
Canis familiaris [8] = experiment: Antagonism of apomorphine-induced emesis in sc dosed dog treated 15 mins prior to apomorphine challenge; format: functional, organism-based; conditions: Canis lupus familiaris
Rattus norvegicus [9] = experiment: Induction of circling behaviour in Sprague-Dawley rat administered into nucleus accumbens in presence of propranolol; format: functional, organism-based
Canis familiaris [10] = experiment: Toxicity in dog up to 2 mg/kg, sc; format: organism-based, Canis lupus familiaris; design: dose 2 mg/kg, route subcutaneous; conditions: in vivo
Rattus norvegicus [11] = experiment: Induction of hyperactivity in Sprague-Dawley rat at 2.5 to 20 mg/kg, sc; format: functional, organism-based
Felis catus [12] = species: Felis catus; experiment: Agonist activity at dopamine receptor in cat right atrium assessed as inhibition of cardiaccelerator nerve stimulation rate by cardiotachometer analysis; format: tissue-based; conditions: Cardiac atrium
Columba livia [13] = experiment: Induction of pecking in im dosed pigeon; format: functional, organism-based
Columba livia [14] = experiment: Antagonism of apomorphine-induced pecking in im dosed pigeon treated 15 mins prior to apomorphine challenge; format: functional
Felis catus [15] = experiment: Effect on heart rate in iv dosed cat; format: functional, organism-based
Rattus norvegicus [16] = experiment: Induction of stereotyped behaviour in Sprague-Dawley rat at 2.5 to 20 mg/kg, sc; format: functional, organism-based
Rattus norvegicus [17] = experiment: Induction of circling behaviour in sc dosed Sprague-Dawley rat assessed as reversal of spontaneous ipsilateral to contralateral circling response; format: functional, organism-based
Rattus norvegicus [18] = experiment: Induction of circling behaviour in sc dosed Sprague-Dawley rat assessed as onset of action; format: functional
Rattus norvegicus [19] = experiment: Induction of circling behaviour in sc dosed Sprague-Dawley rat assessed as duration of action; format: functional
Rattus norvegicus [20] = experiment: Induction of circling behaviour in sc dosed Sprague-Dawley rat in presence of 0.8 mg/kg haloperidol; format: functional, organism-based; design: dose 0.8 mg/kg
Rattus norvegicus [21] = experiment: Induction of circling behaviour in sc dosed Sprague-Dawley rat in presence of 5 mg/kg aceperone; format: functional, organism-based; design: dose 5 mg/kg
Rattus norvegicus [22] = experiment: Induction of circling behaviour in sc dosed Sprague-Dawley rat in presence of 5 mg/kg propranolol; format: functional, organism-based; design: dose 5 mg/kg
Rattus norvegicus [23] = experiment: Induction of hyperactivity in Sprague-Dawley rat administered into caudate putamen; format: functional, organism-based
Rattus norvegicus [24] = experiment: Induction of stereotyped behaviour in Sprague-Dawley rat administered into caudate putamen; format: functional, organism-based
Rattus norvegicus [25] = experiment: Induction of hyperactivity in Sprague-Dawley rat administered into nucleus accumbens; format: functional, organism-based
Rattus norvegicus [26] = experiment: Induction of stereotyped behaviour in Sprague-Dawley rat administered into nucleus accumbens; format: functional, organism-based
Rattus norvegicus [27] = experiment: Induction of hyperactivity in Sprague-Dawley rat administered into caudate putamen in presence of 0.2 to 0.8 mg/kg haloperidol; format: functional, organism-based
Rattus norvegicus [28] = experiment: Induction of stereotyped behaviour in Sprague-Dawley rat administered into caudate putamen in presence of 0.2 to 0.8 mg/kg haloperidol; format: functional, organism-based
Rattus norvegicus [29] = experiment: Induction of hyperactivity in Sprague-Dawley rat administered into nucleus accumbens in presence of 0.2 to 0.8 mg/kg haloperidol; format: functional, organism-based
Rattus norvegicus [30] = experiment: Induction of stereotyped behaviour in Sprague-Dawley rat administered into nucleus accumbens in presence of 0.2 to 0.8 mg/kg haloperidol; format: functional, organism-based
Rattus norvegicus [31] = experiment: Induction of hyperactivity in Sprague-Dawley rat administered into caudate putamen in presence of 5 mg/kg aceperone; format: functional, organism-based; design: dose 5 mg/kg
Rattus norvegicus [32] = experiment: Induction of stereotyped behaviour in Sprague-Dawley rat administered into caudate putamen in presence of 5 mg/kg aceperone; format: functional, organism-based; design: dose 5 mg/kg
Rattus norvegicus [33] = experiment: Induction of hyperactivity in Sprague-Dawley rat administered into nucleus accumbens in presence of 5 mg/kg aceperone; format: functional, organism-based; design: dose 5 mg/kg
Rattus norvegicus [34] = experiment: Induction of stereotyped behaviour in Sprague-Dawley rat administered into nucleus accumbens in presence of 5 mg/kg aceperone; format: functional, organism-based; design: dose 5 mg/kg
Rattus norvegicus [35] = experiment: Induction of hyperactivity in Sprague-Dawley rat administered into caudate putamen in presence of 5 mg/kg propranolol; format: functional, organism-based; design: dose 5 mg/kg
Rattus norvegicus [36] = experiment: Induction of stereotyped behaviour in Sprague-Dawley rat administered into caudate putamen in presence of 5 mg/kg propranolol; format: functional, organism-based; design: dose 5 mg/kg
Rattus norvegicus [37] = experiment: Induction of hyperactivity in Sprague-Dawley rat administered into nucleus accumbens in presence of 5 mg/kg propranolol; format: functional, organism-based; design: dose 5 mg/kg
Rattus norvegicus [38] = experiment: Induction of stereotyped behaviour in Sprague-Dawley rat administered into nucleus accumbens in presence of 5 mg/kg propranolol; format: functional, organism-based; design: dose 5 mg/kg
Rattus norvegicus [39] = experiment: Induction of circling behaviour in Sprague-Dawley rat administered into caudate putamen; format: functional, organism-based
Rattus norvegicus [40] = experiment: Induction of circling behaviour in Sprague-Dawley rat administered into nucleus accumbens; format: functional, organism-based
Rattus norvegicus [41] = experiment: Induction of circling behaviour in Sprague-Dawley rat administered into caudate putamen in presence of haloperidol; format: functional, organism-based
Rattus norvegicus [42] = experiment: Induction of circling behaviour in Sprague-Dawley rat administered into caudate putamen in presence of aceperone; format: functional, organism-based
Rattus norvegicus [43] = experiment: Induction of circling behaviour in Sprague-Dawley rat administered into caudate putamen in presence of propranolol; format: functional, organism-based
Rattus norvegicus [44] = experiment: Induction of circling behaviour in Sprague-Dawley rat administered into nucleus accumbens in presence of haloperidol; format: functional, organism-based
Rattus norvegicus [45] = experiment: Induction of circling behaviour in Sprague-Dawley rat administered into nucleus accumbens in presence of aceperone; format: functional, organism-based
Canis familiaris [46] = species: Canis familiaris; experiment: Inhibition of cardioaccelerator nerve stimulation in dog in presence of phentolamine; format: functional, organism-based; conditions: Canis lupus familiaris
Rattus norvegicus [47] = experiment: Induction of circling behaviour in Sprague-Dawley rat at 2.5 to 20 mg/kg, sc; format: functional, organism-based
Rattus norvegicus [48] = experiment: Induction of hyperactivity in Sprague-Dawley rat at 3.13 to 50 ug administered into caudate putamen; format: functional, organism-based
Rattus norvegicus [49] = experiment: Induction of stereotyped behaviour in intrastriatally dosed Sprague-Dawley rat at 3.13 to 50 ug administered into caudate putamen; format: functional, organism-based
Rattus norvegicus [50] = experiment: Induction of hyperactivity in Sprague-Dawley rat at 3.13 to 50 ug administered into nucleus accumbens; format: functional, organism-based
Rattus norvegicus [51] = experiment: Induction of stereotyped behaviour in intrastriatally dosed Sprague-Dawley rat at 3.13 to 50 ug administered into nucleus accumbens; format: functional, organism-based
Rattus norvegicus [52] = experiment: Induction of hyperactivity in Sprague-Dawley rat at 40 mg/kg, sc pretreated for 30 mins with 0.4 mg/kg haloperidol; format: functional, organism-based
Rattus norvegicus [53] = experiment: Induction of hyperactivity in Sprague-Dawley rat at 40 mg/kg, sc pretreated for 30 mins with 5 mg/kg aceperone; format: functional, organism-based
Rattus norvegicus [54] = experiment: Induction of hyperactivity in Sprague-Dawley rat at 40 mg/kg, sc pretreated for 30 mins with 5 mg/kg propranolol; format: functional, organism-based
Rattus norvegicus [55] = experiment: Induction of hyperactivity in Sprague-Dawley rat at 40 mg/kg, sc pretreated for 18 hrs with 5 mg/kg reserpine and 6 hrs with 250 mg/kg alpha-methyl-p-tyrosine; format: functional, organism-based
Rattus norvegicus [56] = experiment: Induction of stereotyped behaviour in sc dosed Sprague-Dawley rat; format: functional, organism-based
Rattus norvegicus [57] = experiment: Induction of stereotyped behaviour in sc dosed Sprague-Dawley rat assessed as onset of action; format: functional
Rattus norvegicus [58] = experiment: Induction of stereotyped behaviour in sc dosed Sprague-Dawley rat assessed as duration of action; format: functional
Rattus norvegicus [59] = experiment: Induction of hyperactivity in Sprague-Dawley rat at 40 mg/kg, sc; format: functional, organism-based; design: dose 40 mg/kg
Rattus norvegicus [60] = experiment: Induction of stereotyped behaviour in sc dosed Sprague-Dawley rat pretreated for 30 mins with 0.4 mg/kg haloperidol; format: functional, organism-based; design: dose 0.4 mg/kg
Rattus norvegicus [61] = experiment: Effect on motor function in Sprague-Dawley rat administered into caudate putamen; format: functional, organism-based

## CCN(CC)CCc1ccc(O)c(O)c1
Felis catus [1]
  ED50: 0.041 µmol/kg
Felis catus [2]
  inhibition: inactive
Felis catus [3]
  inhibition: inactive
Felis catus [4]
  inhibition: Active
Felis catus [5]
  Activity: Active
Felis catus [6]
  Activity: inactive
Canis familiaris [7]
  ED50: inactive
Canis familiaris [8]
  inhibition: inactive
Rattus norvegicus [9]
  Activity: Active
Canis familiaris [10]
  Activity: Non-toxic
Rattus norvegicus [11]
  Activity: inactive
Felis catus [12]
  ED50: 340 nM
Columba livia [13]
  Activity: inactive
Columba livia [14]
  ED50: inactive
Felis catus [15]
  Activity: inactive
Rattus norvegicus [16]
  Activity: inactive
Rattus norvegicus [17]
  Activity: Active
Rattus norvegicus [18]
  Time: 3 min
Rattus norvegicus [19]
  Time: 5 min
Rattus norvegicus [20]
  Activity: inactive
Rattus norvegicus [21]
  Activity: Active
Rattus norvegicus [22]
  Activity: Active
Rattus norvegicus [23]
  Activity: Active
Rattus norvegicus [24]
  Activity: Active
Rattus norvegicus [25]
  Activity: Active
Rattus norvegicus [26]
  Activity: Active
Rattus norvegicus [27]
  Activity: inactive
Rattus norvegicus [28]
  Activity: inactive
Rattus norvegicus [29]
  Activity: inactive
Rattus norvegicus [30]
  Activity: inactive
Rattus norvegicus [31]
  Activity: Active
Rattus norvegicus [32]
  Activity: Active
Rattus norvegicus [33]
  Activity: Active
Rattus norvegicus [34]
  Activity: Active
Rattus norvegicus [35]
  Activity: Active
Rattus norvegicus [36]
  Activity: Active
Rattus norvegicus [37]
  Activity: Active
Rattus norvegicus [38]
  Activity: Active
Rattus norvegicus [39]
  Activity: Active
Rattus norvegicus [40]
  Activity: Active
Rattus norvegicus [41]
  Activity: inactive
Rattus norvegicus [42]
  Activity: Active
Rattus norvegicus [43]
  Activity: Active
Rattus norvegicus [44]
  Activity: inactive
Rattus norvegicus [45]
  Activity: Active

## CN(C)CCc1ccc(O)c(O)c1
Felis catus [1]
  ED50: 0.024 µmol/kg
Felis catus [2]
  inhibition: inactive
Felis catus [3]
  inhibition: inactive
Felis catus [4]
  inhibition: inactive
Canis familiaris [46]
  inhibition: inactive
Canis familiaris [7]
  ED50: inactive
Canis familiaris [8]
  inhibition: inactive
Canis familiaris [10]
  Activity: Non-toxic
Rattus norvegicus [11]
  Activity: inactive
Felis catus [12]
  ED50: 70 nM
Columba livia [13]
  Activity: inactive
Columba livia [14]
  ED50: 9.7 µmol/kg
Felis catus [15]
  Activity: inactive
Rattus norvegicus [16]
  Activity: inactive
Rattus norvegicus [47]
  Activity: inactive
Rattus norvegicus [48]
  Activity: inactive
Rattus norvegicus [49]
  Activity: inactive
Rattus norvegicus [50]
  Activity: inactive
Rattus norvegicus [51]
  Activity: inactive

## CCCN(CCC)CCc1ccc(O)c(O)c1
Felis catus [1]
  ED50: 0.068 µmol/kg
Felis catus [2]
  inhibition: inactive
Felis catus [3]
  inhibition: inactive
Felis catus [4]
  inhibition: Active
Felis catus [5]
  Activity: Active
Felis catus [6]
  Activity: inactive
Canis familiaris [7]
  ED50: 1 mg/kg
Rattus norvegicus [52]
  Activity: inactive
Rattus norvegicus [53]
  Activity: Active
Rattus norvegicus [54]
  Activity: Active
Rattus norvegicus [55]
  Activity: Active
Felis catus [12]
  ED50: 420 nM
Columba livia [13]
  Activity: inactive
Columba livia [14]
  ED50: 56 µmol/kg
Felis catus [15]
  Activity: inactive
Rattus norvegicus [56]
  Activity: Dose-dependent effect
Rattus norvegicus [57]
  Time: <5 min
Rattus norvegicus [58]
  Time: 10 min
Rattus norvegicus [59]
  Activity: Active
Rattus norvegicus [60]
  Activity: inactive
Rattus norvegicus [18]
  Time: 3 min
Rattus norvegicus [19]
  Time: 5 min
Rattus norvegicus [20]
  Activity: inactive
Rattus norvegicus [61]
  Activity: inactive
Rattus norvegicus [27]
  Activity: inactive
Rattus norvegicus [28]
  Activity: inactive
Rattus norvegicus [29]
  Activity: inactive
Rattus norvegicus [30]
  Activity: inactive
Rattus norvegicus [41]
  Activity: inactive
Rattus norvegicus [44]
  Activity: inactive
